In patent US20210139467A1 (GLAXOSMITHKLINE INTELLECTUAL PROPERTY DEVELOPMENT LIMITED, priority 2017, published 2021):

Key:
IDO1 = IDO1 (Homo sapiens, UniProt P14902); assay: IDO1 HeLa RapidFire MS Assay; assay type: cell-based; parameters: stimulated with human interferon-γ (IFN-γ); conditions: HeLa cells stimulated with IFN-γ; kynurenine detected by mass spectrometry; 2 days; read-out: IDO1 HeLa pIC50 (converted)
Method: IDO1 HeLa RapidFire MS Assay
Compounds of the present invention were tested via high-throughput cellular assays utilizing detection of kynurenine via mass spectrometry and cytotoxicity as end-points. For the mass spectrometry and cytotoxicity assays, human epithelial HeLa cells (CCL-2; ATCC®, Manassas, Va.) were stimulated with human interferon-γ (IFN-γ) (Sigma-Aldrich Corporation, St. Louis, Mo.) to induce the expression of indoleamine 2, 3-dioxygenase (IDO1). Compounds with IDO1 inhibitory properties decreased the amount of kynurenine produced by the cells via the tryptophan catabolic pathway. Cellular toxicity due to the effect of compound treatment was measured using CellTiter-Glo® reagent (CTG) (Promega Corporation, Madison, Wis.), which is based on luminescent detection of ATP, an indicator of metabolically active cells. […]
Following incubation, the 384-well plates were removed from the incubator and allowed to equilibrate to room temperature for 30 minutes. […] After a twenty minute incubation at room temperature, luminescence was read on an EnVision® Multilabel Reader (PerkinElmer Inc., Waltham, Mass.). […]

PAN02 pancreatic cells = conditions: cited from earlier work
[1] = tested on: conversion of T cells into CD4+FoxP3+ Tregs; conditions: co-culture of DCs and naive CD4+CD25- T cells; cited from earlier work

Chain of IDO1 (P14902 whole entry): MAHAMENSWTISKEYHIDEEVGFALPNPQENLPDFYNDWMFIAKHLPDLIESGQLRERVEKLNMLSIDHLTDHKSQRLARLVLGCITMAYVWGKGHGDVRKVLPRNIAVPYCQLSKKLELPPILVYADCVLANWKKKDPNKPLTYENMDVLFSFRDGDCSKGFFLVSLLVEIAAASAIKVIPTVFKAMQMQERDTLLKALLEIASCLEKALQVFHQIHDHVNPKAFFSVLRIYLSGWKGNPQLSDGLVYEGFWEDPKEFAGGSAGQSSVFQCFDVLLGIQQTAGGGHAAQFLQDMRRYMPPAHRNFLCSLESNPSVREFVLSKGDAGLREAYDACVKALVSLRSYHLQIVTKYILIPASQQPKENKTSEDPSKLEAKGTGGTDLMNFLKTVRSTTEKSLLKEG

SMILES | IC50 (IDO1) [nM] | inhibition of tumor growth (PAN02 pancreatic cells; PAN02 syngeneic model, immunocompetent mice, orally dosed) | effect on tumor growth (PAN02 pancreatic cells; same tumor implanted in immune-deficient mice) | conversion of T cells into CD4+FoxP3+ Tregs [1]
CC(C)CN(c1ccc(C2(C(=O)O)CC2)nc1Nc1ccc(Cl)cn1)C1CCOCC1 [Example 15, 1-(6-((5-chloropyridin-2-yl)amino)-5-(isobutyl(tetrahydro-2H-pyran-4-yl)amino)pyridin-2-yl)cyclopropane-1-carboxylic acid] | 158 | – | – | –
CC(C)CN(c1ccc(C2(C(=O)NS(C)(=O)=O)CC2)nc1Nc1ccc(Cl)cn1)C1CCOCC1 [Example 16, 1-(6-((5-chloropyridin-2-yl)amino)-5-(isobutyl(tetrahydro-2H-pyran-4-yl)amino)pyridin-2-yl)-N-(methylsulfonyl)cyclopropane-1-carboxamide] | 10 | – | – | –
NS(=O)(=O)NCCNc1nonc1C(=NO)Nc1ccc(F)c(Br)c1 [INCB204360, epacadostat] | – | significant dose-dependent inhibition of tumor growth | without effect | blocked the conversion
